Data taken from US20250205372A1, “RADIOPHARMACEUTICAL COMPOSITIONS, SYNTHETIC METHODS, AND METHODS OF TREATMENT” (The Research Foundation for The State University of New York, priority 2022, published 2025).

Legend:
Assay type in all cases: physicochemical
[1] = Variable temperature mass spectrometry (VTMS): binding of the first second sphere water; conditions: gas phase
Protocol: VTMS and CIVP: All experiments were carried out in a home-built quadrupole time-of-flight mass spectrometer described elsewhere (Waller, 2019). Briefly, the complexes were introduced into the gas phase via an electrospray ionization (ESI) source purged with dry air using PEEK tubing of 50 μm inner diameter. All samples were diluted to 50-100 μM in 50/50 acetonitrile/water from 500 μM stock solutions and an optimized flow rate of 0.6 μL/min was employed. The ESI voltages were typically 2050-2080 V, low enough to prevent sample degradation while still ensuring steady signal. Once generated, the ions were introduced into a vacuum system and stored in a room temperature […] trap. Ions were extracted from this trap and mass selected by a quadrupole mass filter (Extrel), then guided into a cryogenically cooled ion trap capable of operating in a temperature range of 310 K-3 K. For Variable temperature mass spectrometry (VTMS) measurements (Racow, 2019), a mixture of water and helium was introduced via a pulsed valve allowing the formation of hydrated complexes, if thermodynamically feasible. A fraction of ions was then extracted, at 10 Hz, into a reflectron time-of-flight (TOF) mass spectrometer to analyze the relative intensities of the resulting hydrates. The trap was cooled down from 310 K at a rate of ˜1 K/min and mass spectra were collected by summing 1000 scans at 10 K intervals in the cooling down period. The partial pressure of water was maintained between 4×10−8 to 2×10^−7 Torr as detected by a residual gas analyzer (Extorr). Vibrational spectra were recorded using a method known as Cryogenic Ion Vibrational Predissociation (CIVP) spectroscopy as described previously (Yang 2019). Briefly, a mixture of N2 and helium was seeded into the cryogenic ion trap, encouraging the formation of nitrogen adducts (so-called “tags”) typically between 45 K-48 K. Tagged complexes were extracted into the TOF and intersected by a tunable infrared laser pulse from a Nd:YAG pumped OPO/OPA system (LaserVision). The tagged ions absorb a single photon when the wavelength is resonant with a vibrational transition, resulting in the desorption of the tag from the ions. Fragment ion yields were subsequently quantified by a reflectron mass spectrometer. The ratio of fragment to tagged ions, corrected for the laser power, at each wavelength thus yields a linear absorption spectrum of the ions of interest that can be analyzed in the same way as atypical FTIR spectrum.
Data Analysis and Detailed Discussion. The variable temperature mass spectra and corresponding speciation curves of the protonated tripeptide+NOTA (4) and the Ga-tripeptide-NOTA complex (^natGa-4) are shown in FIGS. 71-75. At the highest temperature shown in both figures, no water adduct is observed. […] Similar values were found for the metal-free complex, further confirming that only second sphere hydration events were observed.

[2] = Cleavage assay for cold complexes: pH-dependent autolytic cleavage monitored by LCMS/analytical HPLC; conditions: 80° C. and pH 4.5
Protocol: Cleavage of the cold model complexes was observed over a range of physiological pH conditions, including pH values of 4.5, 5.5, 6.5, and 7.5. Aqueous buffer solutions were prepared using 10 mM sodium acetate (pH 4.5 and 5.5) or 10 mM HEPES (pH 6.5 and 7.5), which were subsequently adjusted to the desired pH using NaOH and/or HCl. An aliquot of the complex was placed in an aqueous solution of the desired pH and incubated for 48 hours at 80° C., monitored regularly via LCMS.

[3] = Temperature-dependent autolytic release from ^67Ga-radiolabeled model peptides (radioHPLC)
Protocol: ^67Ga-citrate was purchased from Jubilant Radiopharma at an average specific activity of 205.0 MBq/mL. The ^67Ga-citrate solution was first converted to ^67GaCl3 using an established solid-phase extraction protocol (Pandy, 2021). The resulting average specific activity of the obtained ^67Ga-chloride solution used for solution radio-labelling was 80.5 MBq/mL. For radio-labeling of NOTA-based model peptides or compound 10, a 20 μL aliquot containing 4.5 MBq of ^67GaCl3 was added to the conjugate (10 nmol, 300 μL) in 10 mM of sodium acetate (NaOAc) buffer. The pH of the solution was adjusted to 5.0. Radiolabeling was completed after 20 minutes at room temperature. The radiolabeled conjugates were characterized with radio-HPLC.

[4] = Quantitation of the ^68Ga(8) product released from TG-10 resin over time

2,2′-(7-(2-((1-1-((2-(((S)-1-amino-3-(1H-indol-3-yl)-1-oxopropan-2-yl)amino)-2-oxoethyl)amino)-3-hydroxy-1-oxopropan-2-yl)amino)-2-oxoethyl)-1,4,7-triazonane-1,4-diyl)diacetic acid [Compound 4]
ΔG (ΔG^298) for the binding of the first second sphere water [1]: -6.74 ± 0.19 kcal/mol
ΔH for the binding of the first second sphere water [1]: -13.2 ± 0.12 kcal/mol
ΔS for the binding of the first second sphere water [1]: −91.3 +/− 2.2 J/mol K

(S)-2,2′-(7-(2-((2-((2-((I-amino-3-(1H-indol-3-yl)-1-oxopropan-2-yl)amino)-2-oxoethyl)amino)-2-oxoethyl)amino)-2-oxoethyl)-1,4,7-triazonane-1,4-diyl)diacetic acid [Compound 3]
autolytic release (analytical HPLC chromatograms) [2]: no autolytic release

^67Gallium 2,2′,2″-(10-(2-((1-1-((2-(((S)-1-amino-3-(H-indol-3-yl)-1-oxopropan-2-yl)amino)-2-oxoethyl)amino)-3-hydroxy-1-oxopropan-2-yl)amino)-2-oxoethyl)-1,4,7,10-tetraazacyclododecane-1,4,7-triyl)triacetate [^67Ga-5]
autolytic release (analytical radioHPLC chromatograms) ([3]; 25° C.): no autolytic release
autolytic release (analytical radioHPLC chromatograms) ([3]; 37° C.): no autolytic release
autolytic release (analytical radioHPLC chromatograms) ([3]; 80° C.): no autolytic release

^67Gallium (S)-2,2′-(7-(2-((2-((2-((I-amino-3-(1H-indol-3-yl)-1-oxopropan-2-yl)amino)-2-oxoethyl)amino)-2-oxoethyl)amino)-2-oxoethyl)-1,4,7-triazonane-1,4-diyl)diacetate [^67Ga-3]
autolytic release (analytical radioHPLC chromatograms) ([3]; 25° C.): no autolytic release
autolytic release (analytical radioHPLC chromatograms) ([3]; 37° C.): lack of fast autolytic release

^68Gallium (((1S)-1-carboxy-5-(3-(naphthalen-2-yl)-2-((1r,4S)-4-((6-oxo-6-((4-((1,4,7-tris(carboxymethyl)-1,4,7-triazonan-2-yl)methyl)phenyl)amino)hexanamido)methyl)cyclohexane-1-carboxamido)propanamido)pentyl)carbamoyl)-L-glutamic acid triacetate [^68Ga(8)]
Activity released per time ([4]; released from TG-10, 10 min): 14.2 ± 1.57%
Cumulative released activity ([4]; released from TG-10, 10 min): 14.2 ± 1.57%
Activity released per time ([4]; released from TG-10, 20 min): 17.9 ± 0.97%
Cumulative released activity ([4]; released from TG-10, 20 min): 32.1 ± 0.60%
Activity released per time ([4]; released from TG-10, 30 min): 18.9 ± 0.61%
Cumulative released activity ([4]; released from TG-10, 30 min): 50.9 ± 1.21%
Activity released per time ([4]; released from TG-10, 60 min): 15.4 ± 0.85%
Cumulative released activity ([4]; released from TG-10, 60 min): 66.3 ± 0.36%
Activity released per time ([4]; released from TG-10, 90 min): 11.5 ± 0.84%
Cumulative released activity ([4]; released from TG-10, 90 min): 77.8 ± 1.20%
Activity released per time ([4]; released from TG-10, 120 min): 9.2 ± 1.56%
Cumulative released activity ([4]; released from TG-10, 120 min): 87.0 ± 2.76%
Cumulative released activity ([4]; released from TG-10, last line of table, time not given): 88.0%

^natCopper 2,2′,2-(10-(2-(((R)-1-((2-(((S)-1-amino-3-(1H-indol-3-yl)-1-oxopropan-2-yl)amino)-2-oxoethyl)amino)-3-hydroxy-1-oxopropan-2-yl)amino)-2-oxoethyl)-1,4,7,10-tetraazacyclododecane-1,4,7-triyl)triacetate [^natCu-5]
autolytic release (analytical HPLC chromatograms) [2]: no autolytic release

^natCopper 2,2′-(7-(2-((1-1-((2-(((S)-1-amino-3-(1H-indol-3-yl)-1-oxopropan-2-yl)amino)-2-oxoethyl)amino)-3-hydroxy-1-oxopropan-2-yl)amino)-2-oxoethyl)-1,4,7-triazonane-1,4-diyl)diacetate [^natCu-4]
autolytic release (analytical HPLC chromatograms) [2]: no autolytic release

^natCopper (S)-2,2′-(7-(2-((2-((2-((1-amino-3-(1H-indol-3-yl)-1-oxopropan-2-yl)amino)-2-oxoethyl)amino)-2-oxoethyl)amino)-2-oxoethyl)-1,4,7-triazonane-1,4-diyl)diacetate [^natCu-3]
autolytic release (analytical HPLC chromatograms) [2]: no autolytic release

^natGallium 2,2′,2″-(10-(2-((1-1-((2-(((S)-1-amino-3-(1H-indol-3-yl)-1-oxopropan-2-yl)amino)-2-oxoethyl)amino)-3-hydroxy-1-oxopropan-2-yl)amino)-2-oxoethyl)-1,4,7,10-tetraazacyclododecane-1,4,7-triyl)triacetate [^natGa-5]
autolytic release (analytical HPLC chromatograms) [2]: no autolytic release

^natGallium 2,2′-(7-(2-((1-1-((2-(((S)-1-amino-3-(1H-indol-3-yl)-1-oxopropan-2-yl)amino)-2-oxoethyl)amino)-3-hydroxy-1-oxopropan-2-yl)amino)-2-oxoethyl)-1,4,7-triazonane-1,4-diyl)diacetate [^natGa-4]
ΔG (ΔG^298) for the binding of the first second sphere water [1]: -7.19 ± 0.645 kcal/mol
ΔH for the binding of the first second sphere water [1]: -11.7 ± 0.621 kcal/mol
ΔS for the binding of the first second sphere water [1]: −62.9 +/− 17.5 J/mol K

^natScandium 2,2′,2″-(10-(2-((1-1-((2-(((S)-1-amino-3-(1H-indol-3-yl)-1-oxopropan-2-yl)amino)-2-oxoethyl)amino)-3-hydroxy-1-oxopropan-2-yl)amino)-2-oxoethyl)-1,4,7,10-tetraazacyclododecane-1,4,7-triyl)triacetate [^natSc-5]
autolytic release (analytical HPLC chromatograms) [2]: no autolytic release
